This assay deals with SOD1-G93A TGN mice. Put plainly: Noscapine-MK801 treatment of SOD1-G93A TGN mice: gait/stride length, disease onset, mortality. It is filed as in vivo, mouse. The conditions noted are these: for Mortality: age at death; for Onset of motor deficits: age at onset. How it is done:
FIG. 6. Noscapine-MK801 combination delays onset of disease and death in SOD1-G93A TGN mice. The one and two-drug treatments were started at an early (i.e., presymptomatic) stage of disease (7 weeks). SOD1-G93A TGN mice were treated 3 times a week with noscapine (0.2 mg/kg body weight) and/or MK-801 (12 mg/kg body weight/day). Mice received noscapine intraperitoneally and MK-801 in drinking water.
Female SOD-1 G93A TGN mice were obtained from Jackson laboratory (strain #2726). The controls were matched litter mates. Treatment groups were three per group. Noscapine was injected intraperitoneal in the thigh 3 times/week (0.2 mg/kg i.p.) and MK801 was administered continuously in drinking water (12 mg/kg/d). Gait analysis was done by the method of Wooley et al., Muscle Nerve 2005 32(1):43-50 and Carter et al. J. Neurosci., 19(8):3248-3257, hereby incorporated by reference in their entirety.
For clinical assessment endpoints scoring was selected as follows:
GROUP CLASSIFICATION: Presymptomatic
Clinical signs: Full mobility and no observable difference in behavior from age-matched controls (Gait or stride length analysis).
GROUP CLASSIFICATION: Onset
Clinical signs: Abnormal Gait or stride length analysis and hindlimb weakness: >40% reduction in stride length vs. age-matched littermates.
GROUP CLASSIFICATION: End Stage (euthanization)
Clinical signs: noticeable and complete hind limb paralysis (which in this strain occurs more on one limb than the other) and inability to right themselves in 5 sec time window. This stage starts usually as the mice are failing the gait analysis test and enter the End stage. Therefore, Transgenic SOD1-G93A TGN mice are euthanized at the onset of noticeable and complete hindlimb paralysis and inability to right themselves in 5 sec time window.

The structures appear in SMILES notation.

On to `C[C@]12N[C@H](Cc3ccccc31)c1ccccc12` [MK-801, Dizocilipine], for which the Mortality was 112 to 119 days and the “Onset of motor deficits” value was in the range of 105 to 112 days.

Take `COc1ccc2c(c1OC)C(=O)O[C@@H]2[C@H]1c2c(cc3c(c2OC)OCO3)CCN1C` [Noscapine, noscapine]: the Mortality fell in the range of 112 to 119 days and the “Onset of motor deficits” value was in the range of 98 to 105 days.
